Source: patent US20250289785A1, “INDOLE DERIVATIVE, METHOD FOR PREPARING SAME, AND USE THEREOF” (MITOIMMUNE THERAPEUTICS INC., priority 2021, published 2025)

Legend:
[1] = Plasma and brain concentration after oral administration to ICR mice (HPLC-MS/MS); assay type: in vivo; settings: ICR mouse, 10 mg/kg, 2 hours after administration
Experimental: […] parameters can be represented as maximum concentration in plasma (Cmax), time taken until maximum concentration in plasma (Tmax), area under the plasma concentration-time curve (AUClast and AUCinf), and half-life (t1/2), and the like.
The compound of example 2 was orally administered to ICR mice at a dose of 10 mg/kg, and drug concentration in mouse plasma was measured using HPLC-MS/MS spectroscopy at 0.5, 1, 2, 4, 8 and 24 hours. The mouse brains were removed at 2 or 24 hours, and drug concentration in the brain was measured using HPLC-MS/MS spectroscopy. The area under the plasma concentration v. time curve (AUCinf) was measured to be […], and at 2 hours after administration drug concentration in plasma was 546 ng/mL and brain drug concentration was measured at 1043 ng/mL. […] Further, at 24 hours after administration, for Embodiment 2, drug concentration in plasma was measured to be 4.7 ng/mL and drug concentration in the brain was measured at 5.7 ng/mL. With the brain-plasma drug concentration ratio at 1.23, drug exposure in the brain was still high.
The Comparative Example compound was orally administered to ICR mice at a dose of 10 mg/kg, and drug concentration in mouse plasma was measured using HPLC-MS/MS spectroscopy at 0.5, 1, 2, 4, 8 and 24 hours. The mouse brains were removed at 2 or 24 hours, and drug concentration in the brain was measured using HPLC-MS/MS spectroscopy.

[2] = system: H9C2 cells; test: Cell protection effect against t-BHP in heart cells (LDH release); assay type: cell-based; settings: H9C2, t-BHP 40 μM, 2 hours
Experimental: In order to identify the protective effect with regard to heart cells, H9C2 cells were divided into 96-well plates by 1.5×10^4, and cultured for 24 hours. The respective wells were treated with compounds of the examples 3× serial diluted to final concentrations of […], then cultured for 15 to 20 minutes. After treating with t-BHP with a final concentration of 40 μM, culturing was performed for 2 hours. In order to identify the protective effect of each compound, a Cytotoxicity LDH assay kit [Dojindo; CK12] was used to measure the degree of extracellular secretion of LDH. To describe briefly, at the time point 2-hour treatment of the cells with t-BHIP was completed, 100 μL each of the supernatant in which the cells were placed was collected and moved to a new 96-well plate. 100 μL/well of the assay buffer included in the kit (same amount as the sample) was added, followed by wrapping with foil and reacting for 30 minutes at room temperature. Observing the change in color of the sample, 50 μL/well of stop solution was added, then an iD3 spectrometer was used to measure absorbance at 490 nm and calculate the EC50 values. The EC50 of the compounds of the examples is preferably no more than 1.0 μM, and more preferably no more than 0.3 μM.

| SMILES | brain drug concentration [1] [ng/mL] | drug concentration in plasma [1] [ng/mL] | EC50 [2] [nM] |
| --- | --- | --- | --- |
| OCc1cc(NC2CCCC2)c2[nH]c(-c3ccccc3)cc2c1 [Comparative Example, reference compound] | 95.1 | 1122.4 |  |
| CCCOCc1cc(NC2CCOCC2)c2[nH]c(-c3ccccc3)cc2c1 [Example 47, 2-phenyl-5-(propoxymethyl)-N-(tetrahydro-2H-pyran-4-yl)-1H-indol-7-amine] |  |  | ≤ 300 |
| c1ccc(-c2cc3cc(COCC4CC4)cc(NC4CCOCC4)c3[nH]2)cc1 [Example 48, 5-((cyclopropylmethoxy)methyl)-2-phenyl-N-(tetrahydro-2H-pyran-4-yl)-1H-indol-7-amine] |  |  | ≤ 300 |
| CCOCc1cc(NCC2CCOCC2)c2[nH]c(-c3ccccc3)cc2c1 [Example 49, 5-(ethoxymethyl)-2-phenyl-N-((tetrahydro-2H-pyran-4-yl)methyl)-1H-indol-7-amine] |  |  | ≤ 300 |

Results, then the compound that gave them:

| brain drug concentration [1] [ng/mL] | drug concentration in plasma [1] [ng/mL] | EC50 [2] [nM] | SMILES |
| --- | --- | --- | --- |
|  |  | ≤ 300 | COCCCc1cc(NC2CCOCC2)c2[nH]c(-c3ccccc3)cc2c1 [Example 50, 5-(3-methoxypropyl)-2-phenyl-N-(tetrahydro-2H-pyran-4-yl)-1H-indol-7-amine] |
|  |  | ≤ 300 | CCOCCCc1cc(NC2CCOCC2)c2[nH]c(-c3ccccc3)cc2c1 [Example 51, 5-(3-ethoxypropyl)-2-phenyl-N-(tetrahydro-2H-pyran-4-yl)-1H-indol-7-amine] |
